Results from ChEMBL document CHEMBL4346707, “Synthesis and biological evaluation of pyrazolo[3,4-b]pyridine-3-yl pyrimidine derivatives as sGC stimulators for the treatment of pulmonary hypertension” (Eur J Med Chem, 2019).
The source made the active and inactive calls. No cut-off for these calls is given here.

Assays:
Rattus norvegicus = organism: Rattus norvegicus; assay: Stimulatory activity at sGC in Sprague-Dawley rat thoracic aorta assessed as inhibition of norepinephrine-induced contraction at 1 uM by JZ100 strain guages based isometric analysis relative to control; parameters: scale not given: the % may be the effect or the level left
[1] = Stimulatory activity at sGC in Sprague-Dawley rat thoracic aorta assessed as inhibition of norepinephrine-induced contraction by JZ100 strain guages based isometric analysis
Heart [2] = assay: Cardioprotective activity in Langendorff perfused Sprague-Dawley rat heart assessed as reduction of coronary perfusion pressure; assay type: functional, tissue-based
Heart [3] = assay: Cardioprotective activity in Langendorff perfused Sprague-Dawley rat heart assessed as reduction of coronary perfusion pressure at 0.01 to 3 uM relative to control; assay type: functional
Heart [4] = assay: Cardioprotective activity in Langendorff perfused Sprague-Dawley rat heart assessed as increase in coronary artery relaxation; assay type: functional, tissue-based
Heart [5] = assay: Cardioprotective activity in Langendorff perfused Sprague-Dawley rat heart assessed as increase in coronary artery blood flow; assay type: functional, tissue-based
Heart [6] = assay: Potency index. ratio of EC50 of riociguat to EC50 of compound for cardioprotective activity in Langendorff perfused Sprague-Dawley rat heart assessed as increase in coronary artery relaxation; assay type: functional
[7] = Half life in male Beagle dog at 0.5 mg/kg, po by LC-MS/MS analysis; assay type: ADME, organism-based, Canis lupus familiaris; settings: in vivo
[8] = Tmax in male Beagle dog at 0.5 mg/kg, po by LC-MS/MS analysis; assay type: ADME, organism-based, Canis lupus familiaris; settings: in vivo
[9] = Cmax in male Beagle dog at 0.5 mg/kg, po by LC-MS/MS analysis; assay type: ADME, organism-based, Canis lupus familiaris; parameters: dose 0.5 mg/kg, route oral; settings: in vivo
[10] = AUC (0 to infinity) in male Beagle dog at 0.5 mg/kg, po by LC-MS/MS analysis; assay type: ADME, organism-based, Canis lupus familiaris; parameters: dose 0.5 mg/kg, route oral, time infinity; settings: in vivo
[11] = Apparent clearance in male Beagle dog at 0.5 mg/kg, po by LC-MS/MS analysis; assay type: ADME, organism-based, Canis lupus familiaris; settings: in vivo, read-out: CL(app) (converted)
[12] = Apparent volume of distribution in male Beagle dog at 0.5 mg/kg, po by LC-MS/MS analysis; assay type: ADME, organism-based, Canis lupus familiaris; settings: in vivo
[13] = Oral bioavailability (0 to infinity) in male Beagle dog at 0.5 mg/kg by LC-MS/MS analysis; assay type: ADME, organism-based, Canis lupus familiaris; settings: in vivo
[14] = Half life in male Beagle dog at 1.5 mg/kg, po by LC-MS/MS analysis; assay type: ADME, organism-based, Canis lupus familiaris; settings: in vivo
[15] = Tmax in male Beagle dog at 1.5 mg/kg, po by LC-MS/MS analysis; assay type: ADME, organism-based, Canis lupus familiaris; settings: in vivo
[16] = Cmax in male Beagle dog at 1.5 mg/kg, po by LC-MS/MS analysis; assay type: ADME, organism-based, Canis lupus familiaris; parameters: dose 1.5 mg/kg, route oral; settings: in vivo
[17] = AUC (0 to infinity) in male Beagle dog at 1.5 mg/kg, po by LC-MS/MS analysis; assay type: ADME, organism-based, Canis lupus familiaris; parameters: dose 1.5 mg/kg, route oral, time infinity; settings: in vivo
[18] = Apparent clearance in male Beagle dog at 1.5 mg/kg, po by LC-MS/MS analysis; assay type: ADME, organism-based, Canis lupus familiaris; settings: in vivo, read-out: CL(app) (converted)
[19] = Apparent volume of distribution in male Beagle dog at 1.5 mg/kg, po by LC-MS/MS analysis; assay type: ADME, organism-based, Canis lupus familiaris; settings: in vivo
[20] = Half life in male Beagle dog at 4.5 mg/kg, po by LC-MS/MS analysis; assay type: ADME, organism-based, Canis lupus familiaris; settings: in vivo
[21] = Tmax in male Beagle dog at 4.5 mg/kg, po by LC-MS/MS analysis; assay type: ADME, organism-based, Canis lupus familiaris; settings: in vivo
[22] = Cmax in male Beagle dog at 4.5 mg/kg, po by LC-MS/MS analysis; assay type: ADME, organism-based, Canis lupus familiaris; parameters: dose 4.5 mg/kg, route oral; settings: in vivo
[23] = AUC (0 to infinity) in male Beagle dog at 4.5 mg/kg, po by LC-MS/MS analysis; assay type: ADME, organism-based, Canis lupus familiaris; parameters: dose 4.5 mg/kg, route oral, time infinity; settings: in vivo
[24] = Apparent clearance in male Beagle dog at 4.5 mg/kg, po by LC-MS/MS analysis; assay type: ADME, organism-based, Canis lupus familiaris; settings: in vivo, read-out: CL(app) (converted)
[25] = Apparent volume of distribution in male Beagle dog at 4.5 mg/kg, po by LC-MS/MS analysis; assay type: ADME, organism-based, Canis lupus familiaris; settings: in vivo
[26] = Half life in female Beagle dog at 0.5 mg/kg, po by LC-MS/MS analysis; assay type: ADME, organism-based, Canis lupus familiaris; settings: in vivo
[27] = Tmax in female Beagle dog at 0.5 mg/kg, po by LC-MS/MS analysis; assay type: ADME, organism-based, Canis lupus familiaris; settings: in vivo
[28] = Cmax in female Beagle dog at 0.5 mg/kg, po by LC-MS/MS analysis; assay type: ADME, organism-based, Canis lupus familiaris; parameters: dose 0.5 mg/kg, route oral; settings: in vivo
[29] = AUC (0 to infinity) in female Beagle dog at 0.5 mg/kg, po by LC-MS/MS analysis; assay type: ADME, organism-based, Canis lupus familiaris; parameters: dose 0.5 mg/kg, route oral, time infinity; settings: in vivo
[30] = Apparent clearance in female Beagle dog at 0.5 mg/kg, po by LC-MS/MS analysis; assay type: ADME, organism-based, Canis lupus familiaris; settings: in vivo, read-out: CL(app) (converted)
[31] = Apparent volume of distribution in female Beagle dog at 0.5 mg/kg, po; assay type: ADME, organism-based, Canis lupus familiaris; settings: in vivo

## CC(C)OC(=O)N(C)c1c(N)nc(-c2nn(Cc3cccnc3F)c3ncccc23)nc1N
Rattus norvegicus
  Activity: 1.9%

## CCN(C(=O)OC(C)C)c1c(N)nc(-c2nn(Cc3ccc(F)s3)c3ncccc23)nc1N
Rattus norvegicus
  Activity: 41%

## CCN(C(=O)OC(C)C)c1c(N)nc(-c2nn(Cc3sccc3F)c3ncccc23)nc1N
[1]
  EC50: 870 nM
Rattus norvegicus
  Activity: 76.2%

## COC(=O)N(C)c1c(N)nc(-c2nn(Cc3ccc(F)s3)c3ncccc23)nc1N
Rattus norvegicus
  Activity: 39.2%

## CCN(C(=O)OC)c1c(N)nc(-c2nn(Cc3sccc3F)c3ncccc23)nc1N
[1]
  EC50: 210 nM
Rattus norvegicus
  Activity: 85.4%
Heart [2]
  Activity: Dose-dependent effect
  EC50: 180 nM
Heart [3]
  Emax: 60%
Heart [4]
  Activity: Active
Heart [5]
  Activity: Active

## CC(C)OC(=O)Nc1c(N)nc(-c2nn(Cc3cccnc3F)c3ncccc23)nc1N
Rattus norvegicus
  Activity: 12.5%

## COC(=O)N(C)c1c(N)nc(-c2nn(Cc3cccnc3F)c3ncccc23)nc1N
Rattus norvegicus
  Activity: 21.1%

## CCOC(=O)N(C)c1c(N)nc(-c2nn(Cc3sccc3F)c3ncccc23)nc1N
[1]
  EC50: 380 nM
Rattus norvegicus
  Activity: 86.6%

## CCN(C(=O)OC(C)C)c1c(N)nc(-c2nn(Cc3cncc(C)c3)c3ncccc23)nc1N
Rattus norvegicus
  Activity: 0%

## CCOC(=O)N(C)c1c(N)nc(-c2nn(Cc3cncc(C)c3)c3ncccc23)nc1N
Rattus norvegicus
  Activity: 47.4%

## Cc1cncc(Cn2nc(-c3nc(N)c(N(C)C(=O)OC(C)C)c(N)n3)c3cccnc32)c1
Rattus norvegicus
  Activity: 32.4%

## CC(C)OC(=O)Nc1c(N)nc(-c2nn(Cc3sccc3F)c3ncccc23)nc1N
Rattus norvegicus
  Activity: 42.3%

## COC(=O)N(C)c1c(N)nc(-c2nn(Cc3sccc3F)c3ncccc23)nc1N
[1]
  EC50: 110 nM
Rattus norvegicus
  Activity: 87%
Heart [2]
  Activity: Dose-dependent effect
  EC50: 86 nM
Heart [3]
  Emax: 60%
Heart [4]
  Activity: Active
Heart [6]
  Ratio EC50: 3
[7]
  half-life: 122 min
[8]
  Tmax: 36 min
[9]
  Cmax: 83.8 ng/mL
[10]
  AUC(0-inf): 213 ng·h/mL
[11]
  CL/F: 41 mL/min/kg
[12]
  Vz: 7.9 L/kg
[13]
  bioavailability: 80%
[14]
  half-life: 194 min
[15]
  Tmax: 45 min
[16]
  Cmax: 106 ng/mL
[17]
  AUC(0-inf): 373 ng·h/mL
[18]
  CL/F: 96 mL/min/kg
[19]
  Vz: 43.47 L/kg
[20]
  half-life: 226 min
[21]
  Tmax: 1.55 h
[22]
  Cmax: 175 ng/mL
[23]
  AUC(0-inf): 874 ng·h/mL
[24]
  CL/F: 103 mL/min/kg
[25]
  Vz: 41.14 L/kg
[26]
  half-life: 105 min
[27]
  Tmax: 1.25 h
[28]
  Cmax: 72.4 ng/mL
[29]
  AUC(0-inf): 198 ng·h/mL
[30]
  CL/F: 42.3 mL/min/kg
[31]
  Vz: 6.38 L/kg
Heart [5]
  Activity: Active

## COC(=O)Nc1c(N)nc(-c2nn(Cc3cccnc3F)c3ncccc23)nc1N
Rattus norvegicus
  Activity: 11.8%

## CCOC(=O)N(CC)c1c(N)nc(-c2nn(Cc3cncc(C)c3)c3ncccc23)nc1N
Rattus norvegicus
  Activity: 3%

## CCOC(=O)N(C)c1c(N)nc(-c2nn(Cc3ccc(F)s3)c3ncccc23)nc1N
Rattus norvegicus
  Activity: 38.4%

## CC(C)OC(=O)N(C)c1c(N)nc(-c2nn(Cc3ccc(F)s3)c3ncccc23)nc1N
Rattus norvegicus
  Activity: 38.1%

## CCOC(=O)N(CC)c1c(N)nc(-c2nn(Cc3ccc(F)s3)c3ncccc23)nc1N
Rattus norvegicus
  Activity: 48.4%

## CCN(C(=O)OC(C)C)c1c(N)nc(-c2nn(Cc3cccnc3F)c3ncccc23)nc1N
Rattus norvegicus
  Activity: 9%

## COC(=O)N(C)c1c(N)nc(-c2nn(Cc3cccs3)c3ncccc23)nc1N
Rattus norvegicus
  Activity: 45.1%

## COC(=O)Nc1c(N)nc(-c2nn(Cc3ccc(F)s3)c3ncccc23)nc1N
Rattus norvegicus
  Activity: 30%

## CC(C)OC(=O)Nc1c(N)nc(-c2nn(Cc3ccc(F)s3)c3ncccc23)nc1N
Rattus norvegicus
  Activity: 17.1%

## CC(C)OC(=O)N(C)c1c(N)nc(-c2nn(Cc3sccc3F)c3ncccc23)nc1N
[1]
  EC50: 180 nM
Rattus norvegicus
  Activity: 75.1%
Heart [2]
  Activity: Dose-dependent effect
  EC50: 110 nM
Heart [3]
  Emax: 60%
Heart [4]
  Activity: Active
Heart [5]
  Activity: Active

## COC(=O)N(C)c1c(N)nc(-c2nn(Cc3ccccc3F)c3ncccc23)nc1N [RIOCIGUAT]
[1]
  EC50: 300 nM
Rattus norvegicus
  Activity: 88.9%
Heart [2]
  EC50: 270 nM

## CCOC(=O)N(CC)c1c(N)nc(-c2nn(Cc3sccc3F)c3ncccc23)nc1N
[1]
  EC50: 240 nM
Rattus norvegicus
  Activity: 85.6%

## COC(=O)Nc1c(N)nc(-c2nn(Cc3sccc3F)c3ncccc23)nc1N
Rattus norvegicus
  Activity: 14.3%

## CCN(C(=O)OC)c1c(N)nc(-c2nn(Cc3cncc(C)c3)c3ncccc23)nc1N
Rattus norvegicus
  Activity: 2.8%

## COC(=O)N(C)c1c(N)nc(-c2nn(Cc3cncc(C)c3)c3ncccc23)nc1N
Rattus norvegicus
  Activity: 31%

## CCN(C(=O)OC)c1c(N)nc(-c2nn(Cc3ccc(F)s3)c3ncccc23)nc1N
Rattus norvegicus
  Activity: 51.9%

## CCOC(=O)Nc1c(N)nc(-c2nn(Cc3ccc(F)s3)c3ncccc23)nc1N
Rattus norvegicus
  Activity: 57.4%

## CCOC(=O)Nc1c(N)nc(-c2nn(Cc3sccc3F)c3ncccc23)nc1N
Rattus norvegicus
  Activity: 27.3%
